Consider nine molecules from US20160271157A1, “BETA-CATENIN” (UCL BUSINESS PLC, priority 2013, published 2016).

Experiment [1] deals with Wnt induced calcium release. As to the kind of experiment: Wnt induced [Ca2+]i release after preincubation with thapsigargin or membrane potential regulating compounds. Type of experiment: cell-based. Here is the method: The imaging protocol was developed in the inventor's laboratory and has been described in detail, elsewhere (Wang at al., (2010) PLoS ONE 5, e10456). Briefly, 100000-200000 PC3, MCF7, 253J or Cos 7 cells were plated on 35 mm FluoroDish (WPI) and grown for 48 h; calcium indicators Fluo-4 (Invitrogen) and FuraRed (Invitrogen) at 1 ng/ml were added to FluoroDish containing only 1 ml of culture medium and incubated for 15-20 min at 37° C. The culture medium was removed and washed (×2) and replaced with 1 ml PBS. Live cell calcium Imaging was performed on an Olympus FluoView FV 1000 confocal microscope (Olympus KeyMed) equipped with a 20× dry objective (numerical aperture=0.75). Calcium indicators were excited with an argon laser line (488 nm) and emissions recorded in the green channel (500-560 nm) for Fluo-4 and red channel (600-700 nm) for FuraRed after addition of vehicle control (PBS) or Wnt X (30-600 ng/ml). Images were acquired every 1.1 or 2.2 seconds for up to 600-800s; image and data acquisition was performed using FluoView 1000 software (Olympus, UK). Fluorescent intensity was measured and data exported as a tab delimited file for further analysis using a spreadsheet. All imaging experiments were performed in duplicate; intracellular calcium at 100 ng/ml was measured in at least 3-12 different passages (passage numbers 25 to 37) of cell line for each Wnt ligand. Wnt 11 was tested in at least 5 different passages at 3 different concentrations. […]
To measure the effect of changes in membrane potential on [Ca^2+]i release using the protocol described above, in some experiments, external solution (PBS) was substituted with varying concentrations of KCl. In other experiments chemical inhibitors of K^+ channels such as TEA, CsCl or tolbutamide (Sigma-Aldrich) were added to the cells grown on FluoroDish, at 37° C., at least 5 min prior to addition of Wnt ligands.
After image acquisition, regions of interest (ROI) were drawn over individual PC3 cells (up to 25) in a single frame and calcium intensity measurements were made using FluoView 1000 software (Olympus, UK). The measurements were exported as a tab delimited file into a spreadsheet for further analysis and Fluo4/Fura Red ratios were calculated. The waveform, a product of the ratio of Fluo4 and FuraRed over the period of measurement was used to measure the kinetics of the activation of [Ca^2+]i release in PC3 cells, in response to different Wnt ligands. The time constants (rise, dwell and fall times) were calculated by first fitting the Fluo4/FuraRed ratio to a single Gaussian function (Origin Lab Corp., MA); a lower (10%) and upper (90%) amplitude thresholding method was then used to calculate the time constants (s). Statistical significance was calculated using Mann Whitney U test.

For experiment [2], the system named is β-catenin translocation to the nucleus. As to the kind of experiment: β-catenin immunocytochemistry and nuclear co-localization analysis, PC3. The format is cell-based. As to conditions: PC3 cells, K+ channel inhibitors 1-15 mM, Wnt5A and 9B. Here is the method:
Immunostaining was performed in two different laboratories, independently with the experimenter blind to the identity of the treatment. Either cells used in FluoroDish, post [Ca^2+]i experiments using dyes (see above) or grown in 8 well chamber glass slides (Lab Tek II, Nunc) were used. For Wnt ligand treatment, the culture medium replaced with PBS (without calcium) at 37° C. The experiments were replicated for Wnt ligand or vehicle control as described for [Ca^2+]i measurements. Briefly, Wnt ligands were added and chamber slides incubated at 37° C. for up to 20 min. Chamber wells were washed 3× with 0.5 ml PBS and cells were fixed with 0.5 ml 4% formalin for 30 min at 4° C. Cells were washed 3× with ice cold PBS and stored in 0.5 ml PBS at 4° C. for immunostaining. In some experiments PC3 cells were treated with thaspsigargin as described above.
For immunostaining cells were washed twice for 5 minutes in TBST (20 mM Tris pH 7.4, 0.9% NaCl, 0.1% Tween 20, Sigma). Cells were then incubated in 20% normal goat serum (NGS)/TBST for 30 min at room temperature, the chambers were drained and cells were incubated with mouse anti-β-catenin (ab22656, Abcam, UK) at 1:500 dilution in NGS/TBST overnight at 4° C. Following two further 5 min washes in TBST sections were incubated in goat anti-mouse peroxidase fab (Abcam, UK) at 1:500 dilution for 30 min at room temperature. Following a further two 5 min washes in TBST cells were incubated with tyramide Cy3 (Perkin Elmer) for 10 min at room temperature. Sections were washed twice for 5 min in TBST before nuclear counterstaining with DAPI. After a final two 5 min washes, the chambers were removed and cover slip placed on slides using Permafluor (Thermo Shandon).
Fluorescence immunocytochemical staining for β-catenin expression in cell lines was imaged using Olympus Fluoview 1000 Confocal Microscope (Olympus KeyMed) mounted on an Olympus IX81 inverted microscope using a 20×0.7 NA or 40×1.0 NA dry objective with a zoom of ×3.4′,6-diamidino-2-phenylindole (DAPI, nuclear counterstain) was excited at 405 nm with an emission of 415-500 nm; Cy3 (β-catenin label) signal was excited at 561 nm with an emission spectrum between 570-670 nm. […] Z-stacks of at least 3 fields per sample were imaged and saved in Olympus FV (OIF or OIB) file format.
Nuclear co-localization of β-catenin was calculated by importing FV files for untreated, control or treated cells, into colocalization plugin of Fiji software (http://fiji.sc/Fiji) for Cy3 (β-catenin) and DAPI (nuclear) signals. Pearson co-relation of colocalization were tabulated for 25-90 cells (from 2-5 different passages of cells) using ROI analysis. Statistical significance between untreated and treated cells was calculated using Mann Whitney U test.

The test system of experiment [3] is PC3 prostate cancer cell line. As to the kind of experiment: Cell proliferation assay, live imaging (Incucyte), PC3. Type of experiment: cell-based. As to the method:
Growth curve was monitored at 37° C. in a CO2 incubator by using time lapse imaging with Incucyte (Essen Biosciences) for up to 150 h after plating the cells (t=o) at a density of 25-100 k cells per well in a 6 well plate (Nunc). MPRCs were added at the stated concentrations 24 h after cell plating;
A live imaging system (Incucyte, EssenBiosciences) was used to measure the effect of K^+ channel inhibitors on the rate of cell proliferation. PC3 cells were plated on 6 well plates (Nunc) in 3 ml culture medium (Wang et al (2010) PLoS ONE 5, e10456); K^+ channel inhibitors were added to the wells at 0-15 mM. The plates were placed in Incucyte in a standard cell culture incubator at 37° C. and CO2. Each well was imaged at an interval of up to 4 h and rate of cell proliferation was calculated from these images using Incucyte software.

Experiment [4] relates to MCF7 breast cancer cell line. The experiment is described as follows: Cell growth, time lapse imaging (Incucyte), MCF7. Particulars: MCF7 cells, nicorandil shown as an example. The format is cell-based, human. As to the method:
Growth curve was monitored at 37° C. in a CO2 incubator by using time lapse imaging with Incucyte (Essen Biosciences) for up to 150 h after plating the cells (t=o) at a density of 25-100 k cells per well in a 6 well plate (Nunc). MPRCs were added at the stated concentrations 24 h after cell plating.

The mark [5] stands for this setting: preincubation 5 min, Wnt 9B 0.1 μg/ml as example, CsCl 5 mM, CdCl2 1 mM, TEA 10 mM, Amiodarone 75 μM, Tolbutamide 1 mM, Isradipine 100 μM, Nifedipine 1 mM, Minoxidil 25 μM, Atenolol 37.5 μM, Propanolol 50 μM, Furosemide 150 μM.
The mark [6] stands for this setting: PC3 cells, inhibitors at 0-15 mM.

Entries after “also recorded” stand apart in the source; their conditions may differ. Where two headings read alike, the source gives them in different places.

As to `CCCCNC(=O)NS(=O)(=O)c1ccc(C)cc1` [Tolbutamide], in experiment [1] (setting [5]), the “Wnt ligand induced calcium release after preincubation with MPRC (FIG. 16)” value (shortened to “Wnt ligand induced calcium release”) is on record as “inhibited”. Besides, the “Wnt mediated β-catenin stabilization and translocation to the nucleus (FIG. 11)” value in experiment [2] is recorded as “reduced; also recorded: inhibition”. The “rate of cell proliferation (confluence of cell growth, FIG. 12)” value (shortened to “rate of cell proliferation”) in experiment [3] (setting [6]) was “inhibit proliferation”; in experiment [3] (PC3 cells, inhibitors at 0-15 mM, listed as tolbutamide) it was “inhibition”.
For `CCCCc1oc2ccccc2c1C(=O)c1cc(I)c(OCCN(CC)CC)c(I)c1` [Amiodarone], the “Wnt ligand induced calcium release” value in experiment [1] (setting [5]) was “inhibited”.
In the case of `O=C(NCCO[N+](=O)[O-])c1cccnc1` [Nicorandil], the “Wnt signaling measured using intracellular calcium release (FIG. 22 A and B)” value in experiment [1] is listed as “do not inhibit”. The “cell proliferation (FIG. 22 C)” value in experiment [3] (PC3 cells, Incucyte, nicorandil shown as an example) is given as “do not inhibit”. Further, in experiment [4], the “cell proliferation (FIG. 22 D)” value is recorded as “do not inhibit”.
Take `COC(=O)C1=C(C)NC(C)=C(C(=O)OC(C)C)C1c1cccc2nonc12` (stereo not shown) [Isradipine]: the “Wnt ligand induced calcium release” value in experiment [1] (setting [5]) is on record as “inhibited”.
As to `[Cl][Cd][Cl]` [CdCl2], the “Wnt ligand induced calcium release” value in experiment [1] (setting [5]) is “inhibited”.
For the molecule `CC(C)NCC(O)COc1ccc(CC(N)=O)cc1` (stereo not shown) [Atenolol], the “Wnt ligand induced calcium release” value in experiment [1] (setting [5]) is on record as “inhibited”.
For the molecule `CC[N+](CC)(CC)CC` [TEA, tetraethylammonium], in experiment [1], the “Wnt induced [Ca2+]i release after pre-incubation with K+ channel blocker (FIG. 11)” value is recorded as “reduced; also recorded: abolished” and the “Wnt ligand induced calcium release” value is given as “inhibited”. For the same molecule, in experiment [2], the “Wnt mediated β-catenin stabilization and translocation to the nucleus (FIG. 11)” value is recorded as “reduced; also recorded: biggest reduction”. Besides, in experiment [3], the “rate of cell proliferation” value is listed as “inhibit proliferation”.
As for `CC(C)NCC(O)COc1cccc2ccccc12` (stereo not shown) [Propanolol], the “Wnt ligand induced calcium release” value in experiment [1] (setting [5]) was “inhibited”.
Regarding `[Cl-].[Cs+]` [CsCl], the “Wnt ligand induced calcium release” value in experiment [1] (setting [5]) was “inhibited”. In experiment [2], the “Wnt mediated β-catenin stabilization and translocation to the nucleus (FIG. 11)” value is listed as “reduced”. Moreover, in experiment [3] (setting [6]), the “rate of cell proliferation” value is reported as “inhibit proliferation”.
